We go through eleven compounds from PubChem BioAssay (NCI).

Some test systems named below: HCT-116 colon; EKVX NSCLC; CAKI-1 renal; SF-295 CNS; NCI-H226 lung; M14 melanoma; OVCAR-3 ovarian; SR leukemia; SNB-19 CNS; CCRF-CEM leukemia.
Test in all cases: inhibition of tumour cell growth, NCI panel, 48 h

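Exposure lasted 48 hours, with cells grown in 96-well plates and compounds tested at five concentrations. GI50 = concentration required for 50% inhibition of growth. TGI is the concentration that stops growth completely.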

For the compound `N#Cc1c2c(c(N=[N+]=[N-])n3c1nc1ccccc13)CCCC2`, the TGI in the assay on HCT-116 colon is 3.51 µM; with EKVX NSCLC it was 30.9 µM; with CAKI-1 renal, 6.39 µM; with SF-295 CNS it was 4.94 µM; in the assay on NCI-H226 lung, 3.35 µM; in the assay with M14 melanoma it was 3.48 µM. Further, the TGI is 10.3 µM with OVCAR-3 ovarian, > 100 µM in the assay on SR leukemia and 7.84 µM with SNB-19 CNS.
In the case of `CCOC(=O)/C=C1\Nc2ccccc2C(c2ccccc2)=NC1OC(C)=O` (centres undefined), the TGI in the assay with CCRF-CEM leukemia, in the assay with HCT-116 colon, with EKVX NSCLC, in the assay on CAKI-1 renal, in the assay with SF-295 CNS and in the assay on M14 melanoma was > 100 µM in each case. Further, the TGI in the assay with OVCAR-3 ovarian and in the assay with SR leukemia was > 100 µM each time.
For the compound `O=C(/C=C/N1CCN(c2cccc(C(F)(F)F)c2)CC1)c1ccc(Cl)cc1Cl`, the GI50 in the assay with CCRF-CEM leukemia is 49.6 µM; with HCT-116 colon it was 23.6 µM; in the assay with EKVX NSCLC it was 27.9 µM; in the assay on CAKI-1 renal, 22.7 µM; in the assay on SF-295 CNS, 14.7 µM; in the assay with M14 melanoma, 17.2 µM. Besides, the GI50 was 2.44 µM with OVCAR-3 ovarian, 30.1 µM in the assay with SR leukemia and 47.7 µM in the assay on SNB-19 CNS. In addition, the TGI in the assay with CCRF-CEM leukemia was > 100 µM; with HCT-116 colon it was 50.2 µM; in the assay on EKVX NSCLC it was 65.4 µM; in the assay with CAKI-1 renal, 41.3 µM; in the assay on SF-295 CNS it was 32.4 µM; with M14 melanoma it was 36.1 µM. The TGI is 19.3 µM with OVCAR-3 ovarian, 56 µM in the assay on SR leukemia and > 100 µM with SNB-19 CNS.
`CC[C@]12C=CCN3CC[C@]4(C(=C(C(=O)OC)C1)Nc1cc(O)ccc14)[C@@H]32`: the GI50 in the assay on CCRF-CEM leukemia is 25.3 µM; in the assay with HCT-116 colon it was 16.2 µM; in the assay on EKVX NSCLC it was 24.6 µM; in the assay with CAKI-1 renal, 14.1 µM; in the assay with SF-295 CNS it was 16.7 µM; in the assay with M14 melanoma, 13.9 µM. Further, the GI50 with OVCAR-3 ovarian was 17.7 µM; with SR leukemia, 12.3 µM; in the assay with SNB-19 CNS it was 18 µM. For the same compound, the TGI in the assay on CCRF-CEM leukemia is > 100 µM; in the assay on HCT-116 colon it was 34.3 µM; with EKVX NSCLC, > 100 µM; in the assay with CAKI-1 renal, 37.1 µM; with SF-295 CNS, 33.1 µM; in the assay with M14 melanoma, 34.3 µM. For the same compound, the TGI was 33.9 µM in the assay on OVCAR-3 ovarian, > 100 µM with SR leukemia and 44.2 µM in the assay with SNB-19 CNS.
On to `C/C(=N\NS(=O)(=O)c1ccc(C)cc1)c1ccc[n+]([O-])n1`, for which the TGI is 82.5 µM in the assay with CCRF-CEM leukemia; > 100 µM in the assay with HCT-116 colon; > 100 µM in the assay on EKVX NSCLC; 85.3 µM with CAKI-1 renal; > 100 µM in the assay with SF-295 CNS; > 100 µM in the assay with M14 melanoma. The TGI with OVCAR-3 ovarian, in the assay with SR leukemia and with SNB-19 CNS was > 100 µM in each case.
In the case of `O=C1CCC2(CCC(=O)NC2=O)C(=O)N1`, the TGI with CCRF-CEM leukemia, with HCT-116 colon, with EKVX NSCLC, in the assay on SF-295 CNS, in the assay on NCI-H226 lung and in the assay with M14 melanoma was > 100 µM throughout. In addition, the TGI with OVCAR-3 ovarian, in the assay on SR leukemia and in the assay on SNB-19 CNS was > 100 µM each time.
With `CCCCCCCCCCCCCCCC[N+]1(CC)CCCC1`, the GI50 with CCRF-CEM leukemia was 0.379 µM; in the assay on HCT-116 colon it was 0.361 µM; in the assay on CAKI-1 renal, 1.75 µM; in the assay with NCI-H226 lung, 1.18 µM; with M14 melanoma, 0.474 µM; in the assay with OVCAR-3 ovarian, 0.478 µM. Moreover, the GI50 with SR leukemia was 0.655 µM. Besides, the TGI came to 1.84 µM in the assay on CCRF-CEM leukemia; 1.4 µM in the assay with HCT-116 colon; 11.3 µM with CAKI-1 renal; 5.95 µM with NCI-H226 lung; 1.72 µM in the assay on M14 melanoma; 1.65 µM with OVCAR-3 ovarian. The TGI with SR leukemia amounted to 4.42 µM.
With `c1ccc(SCCCC(Sc2ccccc2)Sc2ccccc2)cc1`, the TGI in the assay on CCRF-CEM leukemia, in the assay on HCT-116 colon, in the assay on EKVX NSCLC, in the assay with CAKI-1 renal, with SF-295 CNS and with M14 melanoma was > 100 µM in each case. Besides, the TGI in the assay on OVCAR-3 ovarian, with SR leukemia and with SNB-19 CNS was > 100 µM throughout.
For `O=C1C=C(Nc2cccc(Br)c2)c2ccccc2C1=O`, the GI50 in the assay on CCRF-CEM leukemia was 21.4 µM; with HCT-116 colon, 10.6 µM; in the assay with CAKI-1 renal, 4.16 µM; with SF-295 CNS, 3.21 µM; with NCI-H226 lung it was 21.7 µM; in the assay on M14 melanoma, 0.611 µM. Also, the GI50 in the assay on OVCAR-3 ovarian was 2.89 µM; in the assay on SR leukemia, 10.2 µM; with SNB-19 CNS it was 6.56 µM. Further, the TGI in the assay with CCRF-CEM leukemia was 82.9 µM; in the assay with HCT-116 colon, 44.5 µM; in the assay with CAKI-1 renal, > 100 µM; with SF-295 CNS, 15.1 µM; in the assay on NCI-H226 lung it was 99.4 µM; in the assay with M14 melanoma, 13.1 µM. Also, the figures for the TGI in the assay on OVCAR-3 ovarian, with SR leukemia and with SNB-19 CNS were 16 µM, 40.3 µM and > 100 µM, respectively.
As for `COc1ccc(C2=CC(c3cc(OC)c(OC)c(OC)c3)n3ncnc3N2)cc1` (centres undefined), the GI50 in the assay on CCRF-CEM leukemia is 0.0425 µM; in the assay with HCT-116 colon it was 0.0401 µM; in the assay on EKVX NSCLC, 0.0788 µM; in the assay with SF-295 CNS it was 0.0228 µM; in the assay on NCI-H226 lung, 7.99 µM; in the assay on M14 melanoma, 0.0333 µM. In addition, the GI50 in the assay on OVCAR-3 ovarian was 0.0286 µM; with SR leukemia, 0.0439 µM; in the assay with SNB-19 CNS, 0.0672 µM. For the same compound, the TGI is > 100 µM with CCRF-CEM leukemia; > 100 µM with HCT-116 colon; > 100 µM with EKVX NSCLC; 0.0742 µM with SF-295 CNS; 71 µM in the assay on NCI-H226 lung; > 100 µM in the assay with M14 melanoma. For the same compound, the TGI is 0.0764 µM in the assay on OVCAR-3 ovarian, > 100 µM in the assay on SR leukemia and > 100 µM in the assay on SNB-19 CNS.
With `CC1(C)N=C(N)N=C(N)N1c1ccc(OCC(=O)Nc2cccc(S(=O)(=O)F)c2)c(Cl)c1`, the TGI is > 100 µM in the assay on CCRF-CEM leukemia; > 100 µM in the assay on HCT-116 colon; > 100 µM in the assay on CAKI-1 renal; > 73.5 µM with SF-295 CNS; 77.2 µM in the assay on NCI-H226 lung; > 100 µM with M14 melanoma. Besides, the TGI in the assay with OVCAR-3 ovarian is > 76.8 µM; in the assay with SR leukemia, > 100 µM; in the assay with SNB-19 CNS, > 100 µM.
